Test results: patent US10307398B2, “Resuscitation composition and methods of making and using” (Regents of the University of Minnesota, priority 2016, dated 2019)
Values after ≈ are worked out from the molar mass of the structure shown. Values joined by “and” are separate entries in the source; they are usually repeats but may differ in a detail not shown here. Equal values may be shown once.

How the values were obtained:
[1] = water vapor sorption of BHB; assay type: physicochemical; settings: 25° C.
Experimental: Water vapor sorption. About 5 mg of sample was placed in the quartz sample pan of an automated vapor sorption balance (DVS-1000, Surface Measurement Systems, London, UK), maintained at 25° C. It was dried under dry nitrogen purge (flow rate 200 mL/min) to constant weight. Equilibrium was assumed to have been achieved if the mass change was <0.001% over 30 min. […] Equilibrium was assumed to have been achieved if the mass change was <0.005% over 30 min. The microbalance was calibrated periodically using a 100 mg standard weight.
In order to gain a deeper understanding into the water-BHB interaction, the ‘as is’ BHB was heated in the TGA up to 120° C., cooled to RT and transferred to the sample chamber of the water sorption analyzer. The other relevant details are provided in the Experimental section. There was no water sorption up to 15% RH and then the sample gained ˜3% water at 20% RH (FIG. 10). This is in excellent agreement with the water content in ‘as is’ BHB. […] However, under the experimental conditions in the water sorption analyzer (maximum dwell time of 360 minutes at any RH), equilibrium was not attained. Therefore, when the RH was further increased to 55%, a pronounced weight increase again was observed. […] There were two RH ranges, (0-20% and 35-55%) where hysteresis was observed.

[2] = cited from earlier work
[3] = solubility of melatonin in excipient solutions; assay type: physicochemical; settings: aqueous with cosolvent or surfactant or cyclodextrin, thermodynamic from solid
Experimental: A saturated melatonin solution was prepared containing the indicated excipient concentrations and incubated end over end at room temperature for 72 hours. After 72 hours, solutions were filtered through a […] filter and diluted 1:10. Absorption was measured spectrophotometrically at 287 nm (excipient solutions alone were used as blanks).

physchem = experiment: physchem
Experimental: Assuming formation of 1:1 complex between drug and ligand, the complexation efficiency (CE) can be calculated from the slope of the phase-solubility diagram:
[formula] where So is the intrinsic substrate solubility and k1:1 stability constant of the complex.
Solubility Studies. […] An excess amount of MLT was added either to water or PVP solution (concentration ranging from 0.1 to 20% w/v) in polypropylene tubes (protected from light) and incubated with end-over-end rotation at 25° C. until equilibrium was achieved (72 hours). An aliquot was filtered (0.45 μm membrane) and the absorption measured at 270 nm (Epoch microplate spectrophotometer, BioTek, Winooski, Vt.).
PVP is known to form water soluble or insoluble complexes with various drugs with either enhancement or reduction in solubility.

Compound: C[C@@H](O)CC(=O)O [BHB, D-β-hydroxybutyrate]
- water gain (water sorption) ([1]; at 20% RH, BHB previously heated to 120° C.): ~3%
- increase in weight (water sorption, deliquescence) ([1]; at 50% RH): ~40%

Compound: CC(O)COC[C@H]1O[C@@H]2O[C@H]3[C@H](O)[C@@H](O)[C@@H](O[C@H]4[C@H](O)[C@@H](O)[C@@H](O[C@H]5[C@H](O)[C@@H](O)[C@@H](O[C@H]6[C@H](O)[C@@H](O)[C@@H](O[C@H]7[C@H](O)[C@@H](O)[C@@H](O[C@H]8[C@H](O)[C@@H](O)[C@@H](O[C@H]1[C@H](O)[C@H]2O)O[C@@H]8COCC(C)O)O[C@@H]7COCC(C)O)O[C@@H]6COCC(C)O)O[C@@H]5COCC(C)O)O[C@@H]4COCC(C)O)O[C@@H]3COCC(C)O (stereo partly drawn) [HPbCD, Hydroxypropyl-beta-cyclodextrin]
- solubility [2]: exceeds 600 mg/ml

Compound: COc1ccc2[nH]cc(CCNC(C)=O)c2c1 [melatonin, 5-methoxy-N-acetyltryptamine]
- solubility at 72 h ([3]; 10% HPbCD/5% PEG400/5% PVP K12 solution, in 10% HPbCD/5% PEG400/5% PVP K12, room temperature): > 43000 µM and > 10000 µg/mL
- solubility at 72 h ([3]; 20% PVP solution, in 20% PVP, room temperature): > 43000 µM and > 10000 µg/mL
- molar ratio of total drug to free drug (physchem): 1.17
- slope of the phase solubility diagram (physchem): 0.030
- solubility thermodynamic at 72 h (physchem; 25 °C, water, thermodynamic from solid): ~8 mM (≈ 1860 µg/mL)
